In patent publication US20170050957A1, “4-AMINO-6-(HETEROCYCLIC)PICOLINATES AND 6-AMINO-2-(HETEROCYCLIC)PYRIMIDINE-4-CARBOXYLATES AND THEIR USE AS HERBICIDES” (Dow AgroSciences LLC, priority 2013, published 2017):

Test system: Wheat and Barley and test plant species
Assay: Post-emergent Test III, herbicidal activity in wheat and barley (Table 17; visual injury, GR20/GR50/GR80/GR90)
Type: in vivo
Conditions: 21 d; for Visual Growth Reduction (%) 21 Days After Application, CIRAR / Visual Growth Reduction (%) 21 Days After Application, GALAP / Visual Growth Reduction (%) 21 Days After Application, HORVS / Visual Growth Reduction (%) 21 Days After Application, KCHSC / Visual Growth Reduction (%) 21 Days After Application, LAMPU / Visual Growth Reduction (%) 21 Days After Application, MATCH / Visual Growth Reduction (%) 21 Days After Application, PAPRH / Visual Growth Reduction (%) 21 Days After Application, SASKR / Visual Growth Reduction (%) 21 Days After Application, SINAR / Visual Growth Reduction (%) 21 Days After Application, TRZAS / Visual Growth Reduction (%) 21 Days After Application, VERPE / Visual Growth Reduction (%) 21 Days After Application, VIOTR: post-emergent
Method: Post-emergent Test III. Seeds of the desired test plant species were planted in Sun Gro MetroMix® 306 planting mixture, which typically has a pH of 6.0 to 6.8 and an organic matter content of about 30 percent, in plastic pots with a surface area of 103.2 square centimeters (cm^2). When required to ensure good germination and healthy plants, a fungicide treatment and/or other chemical or physical treatment was applied. The plants were grown for 7-36 days (d) in a greenhouse with an approximate 14 hour (h) photoperiod which was maintained at about 18° C. during the day and 17° C. during the night. Nutrients and water were added on a regular basis and supplemental lighting was provided with overhead metal halide 1000-Watt lamps as necessary. The plants were employed for testing when they reached the second or third true leaf stage.
A weighed amount, determined by the highest rate to be tested, of each test compound was placed in a 25 mL glass vial and was dissolved in 4 mL of a 97:3 v/v mixture of acetone and DMSO to obtain concentrated stock solutions. […] The concentrated stock solutions obtained were diluted with 20 mL of an aqueous mixture containing acetone, water, isopropyl alcohol, DMSO, Agri-Dex crop oil concentrate, and X-77 surfactant in a 48:39:10:1.5:1.5:0.02 v/v ratio to obtain spray solutions containing the highest application rates. Additional application rates were obtained by serial dilution of 12 mL of the high rate solution into a solution containing 2 mL of 97:3 v/v mixture of acetone and DMSO and 10 mL of an aqueous mixture containing acetone, water, isopropyl alcohol, DMSO, Agri-Dex crop oil concentrate, and X-77 surfactant in a 48:39:10:1.5:1.5:0.02 v/v ratio to obtain 1/2×, 1/4×, 1/8× and 1/16× rates of the high rate. Compound requirements are based upon a 12 mL application volume at a rate of 187 liters per hectare (L/ha). Formulated compounds were applied to the plant material with an overhead Mandel track sprayer equipped with 8002E nozzles calibrated to deliver 187 L/ha over an application area of 0.503 square meters at a spray height of 18 inches (43 cm) above the average plant canopy height. Control plants were sprayed in the same manner with the solvent blank.
The treated plants and control plants were placed in a greenhouse as described above and watered by subirrigation to prevent wash-off of the test compounds. After 21 d, the condition of the test plants as compared with that of the untreated plants was determined visually and scored on a scale of 0 to 100 percent where 0 corresponds to no injury and 100 corresponds to complete kill. By applying the well-accepted probit analysis as described by J. Berkson in Journal of the American Statistical […], 48, 565 (1953) and by D. Finney in “Probit Analysis” Cambridge University Press (1952), the above data can be used to calculate GR20, GR50, GR80 and GR90 values, which are defined as growth reduction factors that correspond to the effective dose of herbicide required to kill or control 20 percent, 50 percent, 80 percent or 90 percent, respectively, of a target plant.

SMILES: COC(=O)c1nc(-c2ccc(Cl)c3ccoc23)c(F)c(N)c1Cl [Compound 2.24]
- Visual Growth Reduction (%) 21 Days After Application, CIRAR (CIRAR, 17.5 g ai/ha): D (60-74)
- Visual Growth Reduction (%) 21 Days After Application, CIRAR (CIRAR, 35 g ai/ha): C (75-84)
- Visual Growth Reduction (%) 21 Days After Application, CIRAR (CIRAR, 70 g ai/ha): B (85-94)
- GR50, CIRAR (CIRAR, dose for 50 percent growth reduction, probit analysis): 14 g ai/ha
- GR80, CIRAR (CIRAR, dose for 80 percent growth reduction, probit analysis): 35 g ai/ha
- GR90, CIRAR (CIRAR, dose for 90 percent growth reduction, probit analysis): 57 g ai/ha
- Visual Growth Reduction (%) 21 Days After Application, GALAP (GALAP, 17.5 g ai/ha): D (60-74)
- Visual Growth Reduction (%) 21 Days After Application, GALAP (GALAP, 35 g ai/ha): B (85-94)
- Visual Growth Reduction (%) 21 Days After Application, GALAP (GALAP, 70 g ai/ha): B (85-94)
- GR50, GALAP (GALAP, dose for 50 percent growth reduction, probit analysis): 7 g ai/ha
- GR80, GALAP (GALAP, dose for 80 percent growth reduction, probit analysis): 23 g ai/ha
- GR90, GALAP (GALAP, dose for 90 percent growth reduction, probit analysis): 44 g ai/ha
- Visual Growth Reduction (%) 21 Days After Application, HORVS (HORVS, 17.5 g ai/ha): G (0-29)
- Visual Growth Reduction (%) 21 Days After Application, HORVS (HORVS, 35 g ai/ha): G (0-29)
- Visual Growth Reduction (%) 21 Days After Application, HORVS (HORVS, 70 g ai/ha): G (0-29)
- GR20, HORVS (HORVS, dose for 20 percent growth reduction, probit analysis): 66 g ai/ha
- Visual Growth Reduction (%) 21 Days After Application, KCHSC (KCHSC, 17.5 g ai/ha): D (60-74)
- Visual Growth Reduction (%) 21 Days After Application, KCHSC (KCHSC, 35 g ai/ha): C (75-84)
- Visual Growth Reduction (%) 21 Days After Application, KCHSC (KCHSC, 70 g ai/ha): B (85-94)
- GR50, KCHSC (KCHSC, dose for 50 percent growth reduction, probit analysis): 4 g ai/ha
- GR80, KCHSC (KCHSC, dose for 80 percent growth reduction, probit analysis): 33 g ai/ha
- GR90, KCHSC (KCHSC, dose for 90 percent growth reduction, probit analysis): 103 g ai/ha
- Visual Growth Reduction (%) 21 Days After Application, LAMPU (LAMPU, 17.5 g ai/ha): E (45-59)
- Visual Growth Reduction (%) 21 Days After Application, LAMPU (LAMPU, 35 g ai/ha): D (60-74)
- Visual Growth Reduction (%) 21 Days After Application, LAMPU (LAMPU, 70 g ai/ha): C (75-84)
- GR50, LAMPU (LAMPU, dose for 50 percent growth reduction, probit analysis): 15 g ai/ha
- GR80, LAMPU (LAMPU, dose for 80 percent growth reduction, probit analysis): 93 g ai/ha
- GR90, LAMPU (LAMPU, dose for 90 percent growth reduction, probit analysis): >140 g ai/ha
- Visual Growth Reduction (%) 21 Days After Application, MATCH (MATCH, 17.5 g ai/ha): G (0-29)
- Visual Growth Reduction (%) 21 Days After Application, MATCH (MATCH, 35 g ai/ha): G (0-29)
- Visual Growth Reduction (%) 21 Days After Application, MATCH (MATCH, 70 g ai/ha): G (0-29)
- GR50, MATCH (MATCH, dose for 50 percent growth reduction, probit analysis): 114 g ai/ha
- GR80, MATCH (MATCH, dose for 80 percent growth reduction, probit analysis): >140 g ai/ha
- GR90, MATCH (MATCH, dose for 90 percent growth reduction, probit analysis): >140 g ai/ha
- Visual Growth Reduction (%) 21 Days After Application, PAPRH (PAPRH, 17.5 g ai/ha): D (60-74)
- Visual Growth Reduction (%) 21 Days After Application, PAPRH (PAPRH, 35 g ai/ha): D (60-74)
- Visual Growth Reduction (%) 21 Days After Application, PAPRH (PAPRH, 70 g ai/ha): C (75-84)
- GR50, PAPRH (PAPRH, dose for 50 percent growth reduction, probit analysis): 24 g ai/ha
- GR80, PAPRH (PAPRH, dose for 80 percent growth reduction, probit analysis): 52 g ai/ha
- GR90, PAPRH (PAPRH, dose for 90 percent growth reduction, probit analysis): 77 g ai/ha
- Visual Growth Reduction (%) 21 Days After Application, SASKR (SASKR, 17.5 g ai/ha): D (60-74)
- Visual Growth Reduction (%) 21 Days After Application, SASKR (SASKR, 35 g ai/ha): B (85-94)
- Visual Growth Reduction (%) 21 Days After Application, SASKR (SASKR, 70 g ai/ha): B (85-94)
- GR50, SASKR (SASKR, dose for 50 percent growth reduction, probit analysis): 3 g ai/ha
- GR80, SASKR (SASKR, dose for 80 percent growth reduction, probit analysis): 28 g ai/ha
- GR90, SASKR (SASKR, dose for 90 percent growth reduction, probit analysis): 95 g ai/ha
- Visual Growth Reduction (%) 21 Days After Application, SINAR (SINAR, 17.5 g ai/ha): B (85-94)
- Visual Growth Reduction (%) 21 Days After Application, SINAR (SINAR, 35 g ai/ha): A (95-100)
- Visual Growth Reduction (%) 21 Days After Application, SINAR (SINAR, 70 g ai/ha): A (95-100)
- GR50, SINAR (SINAR, dose for 50 percent growth reduction, probit analysis): 6 g ai/ha
- GR80, SINAR (SINAR, dose for 80 percent growth reduction, probit analysis): 13 g ai/ha
- GR90, SINAR (SINAR, dose for 90 percent growth reduction, probit analysis): 19 g ai/ha
- Visual Growth Reduction (%) 21 Days After Application, TRZAS (TRZAS, 17.5 g ai/ha): G (0-29)
- Visual Growth Reduction (%) 21 Days After Application, TRZAS (TRZAS, 35 g ai/ha): G (0-29)
- Visual Growth Reduction (%) 21 Days After Application, TRZAS (TRZAS, 70 g ai/ha): F (30-44)
- GR20, TRZAS (TRZAS, dose for 20 percent growth reduction, probit analysis): 52 g ai/ha
- Visual Growth Reduction (%) 21 Days After Application, VERPE (VERPE, 17.5 g ai/ha): F (30-44)
- Visual Growth Reduction (%) 21 Days After Application, VERPE (VERPE, 35 g ai/ha): D (60-74)
- Visual Growth Reduction (%) 21 Days After Application, VERPE (VERPE, 70 g ai/ha): C (75-84)
- GR50, VERPE (VERPE, dose for 50 percent growth reduction, probit analysis): 30 g ai/ha
- GR80, VERPE (VERPE, dose for 80 percent growth reduction, probit analysis): 66 g ai/ha
- GR90, VERPE (VERPE, dose for 90 percent growth reduction, probit analysis): 100 g ai/ha
- Visual Growth Reduction (%) 21 Days After Application, VIOTR (VIOTR, 17.5 g ai/ha): E (45-59)
- Visual Growth Reduction (%) 21 Days After Application, VIOTR (VIOTR, 35 g ai/ha): D (60-74)
- Visual Growth Reduction (%) 21 Days After Application, VIOTR (VIOTR, 70 g ai/ha): C (75-84)
- GR50, VIOTR (VIOTR, dose for 50 percent growth reduction, probit analysis): 24 g ai/ha
- GR80, VIOTR (VIOTR, dose for 80 percent growth reduction, probit analysis): 78 g ai/ha
- GR90, VIOTR (VIOTR, dose for 90 percent growth reduction, probit analysis): >140 g ai/ha
